The test system of assay [1] is Acinetobacter baumannii (ATCC17978). As to the kind of experiment: Disk diffusion susceptibility method, Acinetobacter baumannii ATCC17978. Type of assay: cell-based. The following applies: disks with 20 μl antibiotic composition, 10 μg colistin or 15 μg Tigecycline, 2 hours at 4° C., then 37° C. Here is the method: (§1) The antibiotic composition was tested using the disk diffusion susceptibility method previously published by Bauer et al. (Bauer, A. W., et al., “Antibiotic susceptibility testing by a standardized single disk method,” Amer J Clin Pathol 45: pp. 495-496 ([…])). Briefly, a multidrug resistant strain of Acinetobacter baumannii was isolated from patients with Type 2 Diabetes Mellitus in a hospital setting in Saudi Arabia. Whatman No. 1 sterilized-paper disks were saturated with 20 μl of the antibiotic composition. Disks were then dried and placed on the surface of a medium inoculated with either the isolated MDR Acinetobacter baumannii or Acinetobacter baumannii (ATCC17978). A further test was run using either 10 μg colistin or 15 μg Tigecycline as controls. The plates containing the inoculated medium were kept for 2 hours at 4° C. to ensure the diffusion of the bioactive material, and then were incubated at 37° C. Disks containing 30 μl of water were used as a negative control.
In general terms: Agar diffusion results depend on both activity and mobility in agar.

In assay [2] the test system is multidrug resistant strain of Acinetobacter baumannii. As to the kind of experiment: Disk diffusion susceptibility method, MDR Acinetobacter baumannii isolate. Type of assay: cell-based. The conditions noted are these: isolated MDR strain from patients with Type 2 Diabetes Mellitus; disks with 20 μl antibiotic composition, 10 μg colistin or 15 μg Tigecycline; 2 hours at 4° C., then 37° C. As to the method:
as §1

Regarding `CN(C)c1cc(NC(=O)CNC(C)(C)C)c(O)c2c1C[C@H]1C[C@H]3[C@H](N(C)C)C(O)=C(C(N)=O)C(=O)[C@@]3(O)C(O)=C1C2=O` [Tigecycline], the zones of inhibition result in assay [1] and in assay [2] was “not around the traditional antibiotic controls” throughout.

For the compound colistin, the zones of inhibition entry in assay [1] and in assay [2] was “not around the traditional antibiotic controls” in each case.

For the origin of these results see patent US12076354B2, “Antibiotic with spirulina platensis and plant extracts” (KING FAISAL UNIVERSITY, priority 2022, dated 2024).
